Assay results reported in US20210353624A1, “METHOD OF TREATING CANCER WITH TELOTRISAT OR A PRODRUG THEREOF” (TerSera Therapeutics LLC, priority 2020, published 2021).
Where “and” joins values, the source holds several entries; their conditions need not be identical. Identical values can stand only once.

Experiments:
[1] = test system: locally advanced or metastatic neuroendocrine tumors (NETs); test: Retrospective single arm chart review (TELEACE): tumor progression, PFS, tumor size; type: in vivo, human; design: patients with progression-free survival (without tumor progression or death) (%) / Progression-free survival: Patients without outcome (%): concentration or dose not given beside the values; conditions: for Difference in tumor size between pre and post-TE initiation, Estimate: longitudinal generalized linear regression (GEE), 95% CI (−16.1%, −0.2%), P=0.045, negative = decrease; for patients with progression-free survival (without tumor progression or death) (%) / patients without tumor progression (%): overall population
Excerpt: This example provides a retrospective, single arm study of patients with locally advanced or metastatic neuroendocrine tumors (NETs) and documented carcinoid syndrome (CS). The patients received telotristat ethyl for at least 6 months. […] This example reports progression-free survival (PFS), time to tumor progression, changes in carcinoid syndrome (CS) symptoms, and indictors of overall health.
Patients with poorly differentiated neuroendocrine tumors, mixed tumor types or conflicting clinical trial enrollment were excluded. Descriptive statistics, Kaplan-Meier and Chi-square tests were used to evaluate PFS, tumor progression, changes in CS symptoms, body weight and Eastern Cooperative Oncology Group (ECOG) performance status before and after telotristat ethyl initiation. Subgroup analyses were conducted in patients with the same pre- and post-telotristat ethyl background treatment.
Adults with unresectable locally advanced or metastatic neuroendocrine tumors and evidence of carcinoid syndrome documented in their medical chart were eligible for inclusion if they had received telotristat ethyl for at least 6 months and had any additional carcinoid syndrome and neuroendocrine tumor treatment information available for at least six months after telotristat ethyl initiation or until death. The presence of carcinoid syndrome was based on the participating physician's assessment of information contained in the medical charts. Participating physicians were recruited by a professional recruiting organization (Dynata, Plano, Tex., USA) and had to have treated at least one eligible patient with telotristat ethyl in the past 12 months in order to participate. Eligible records had to have documented tumor size and tumor response assessments before and after telotristat ethyl initiation, including at least two radiological scans in the 12 months before telotristat ethyl and at least one scan after telotristat ethyl initiation. Patients with a histologically poorly differentiated neuroendocrine tumor based on grade (G3) or Ki67 index >20%, mixed tumor types according to physician notes, or documented enrollment in any clinical trial during the 6 months after telotristat ethyl initiation were excluded.
Time to tumor progression was defined as the time from telotristat ethyl initiation to the first documented tumor progression in the medical chart. […] Progression-free survival (PFS) was defined as the time from telotristat ethyl initiation to tumor progression or death. […] Physician-assessed changes in body weight, Eastern Cooperative Oncology Group (ECOG) Performance Status, and CS symptoms including diarrhea, flushing, abdominal pain, nausea and ascites were abstracted from medical charts before and after telotristat ethyl initiation.
In order to evaluate the effect of telotristat ethyl treatment on secondary clinical outcomes, analyses were conducted in the overall population and in a subgroup of patients who had the same documented non-telotristat ethyl neuroendocrine tumor treatment before and after telotristat ethyl initiation. Descriptive statistics summarized patient demographic and clinical characteristics, and changes in body weight and ECOG Performance Status after telotristat ethyl treatment initiation. Kaplan-Meier analyses estimated median time to tumor progression and median PFS. Chi-square test evaluated changes in documented CS symptoms (improved vs same/worsened) before and after telotristat ethyl initiation. All analyses were performed using SAS version 9.4 (SAS Institute, Cary, N.C., USA).
A radiological scan performed immediately before telotristat ethyl initiation was evaluated. A radiological scan performed post-telotristat ethyl was also examined. Paired t-test was used to calculate P-value for tumor size. Statistical significance (P<0.001) was also confirmed using Wilcoxon signed rank test. […]

[2] = Changes in carcinoid syndrome symptoms, body weight and ECOG Performance Status after TE initiation (TELEACE); type: in vivo, human
Excerpt: Time to tumor progression was defined as the time from telotristat ethyl initiation to the first documented tumor progression in the medical chart. […] Progression-free survival (PFS) was defined as the time from telotristat ethyl initiation to tumor progression or death. […] Physician-assessed changes in body weight, Eastern Cooperative Oncology Group (ECOG) Performance Status, and CS symptoms including diarrhea, flushing, abdominal pain, nausea and ascites were abstracted from medical charts before and after telotristat ethyl initiation. In order to evaluate the effect of telotristat ethyl treatment on secondary clinical outcomes, analyses were conducted in the overall population and in a subgroup of patients who had the same documented non-telotristat ethyl neuroendocrine tumor treatment before and after telotristat ethyl initiation. Descriptive statistics summarized patient demographic and clinical characteristics, and changes in body weight and ECOG Performance Status after telotristat ethyl treatment initiation. Kaplan-Meier analyses estimated median time to tumor progression and median PFS. Chi-square test evaluated changes in documented CS symptoms (improved vs same/worsened) before and after telotristat ethyl initiation. All analyses were performed using SAS version 9.4 (SAS Institute, Cary, N.C., USA). To evaluate the change in CS symptoms, weight, and ECOG performance status between the pre- and post-TE periods, patients with documented CS symptoms (i.e., abdominal pain, ascites, diarrhea, flushing, nausea) pre-TE initiation were described using proportions and frequencies. The change in documented CS symptoms, weight, and ECOG performance status after TE Initiation (i.e., improved/increased, stayed the same/remained unchanged, worsened/decreased) were also described using proportions and frequencies. P-values were calculated using Chi-square test for equal proportions for change in CS symptoms (i.e., proportion of patients with improved vs. stayed the same/worsened CS symptoms).

[3] = 6 months after TE initiation, listed as TE
[4] = 12 months after TE initiation, listed as TE
[5] = treatment subgroup n=65, 12 months
[6] = treatment subgroup n=65, 18 months

SMILES: CCOC(=O)[C@@H](N)Cc1ccc(-c2cc(O[C@H](c3ccc(Cl)cc3-n3ccc(C)n3)C(F)(F)F)nc(N)n2)cc1 [telotristat ethyl, (S)-ethyl 2-amino-3-(4-(2-amino-6-((R)-1-(4-chloro-2-(3-methyl-1H-pyrazol-1-yl)phenyl)-2,2,2-trifluoroethoxy)pyrimidin-4-yl)phenyl)propanoate]
- Tumor size (cm) Change from baseline, Mean ± SD ([1]; N=200, P<0.001): −0.5 ± 1.8 cm
- Tumor size (cm) Post-TE initiation, Mean (IQR) ([1]; N=200, pre-TE 3.5 (2.3, 5.0)): 3.0 (2.0, 4.8) cm
- Tumor size (cm) Post-TE initiation, Mean ± SD ([1]; N=200, pre-TE 3.9 ± 2.2): 3.4 ± 2.3 cm
- patients with improved (responded completely or partially) tumor response post-TE initiation ([1]; among 33 patients with worsened (progressed) tumor response pre-TE initiation): 45%
- average (SD) tumor size reduction ([1]; from scan immediately before TE initiation until last scan post-TE, P<0.001): 0.5 (1.8) cm
- Difference in tumor size between pre and post-TE initiation, Estimate [1]: −8.5%
- Difference in tumor size between pre and post-TE initiation, Estimate ([1]; listed as TE): −8.5%
- median progression-free survival ([1]; overall population n=200, Kaplan-Meier, IQR 17.8, 39.8): 23.7 months
- median time to tumor progression ([1]; overall population n=200, Kaplan-Meier, IQR 18.7, 39.8): 39.8 months
- patients with progression-free survival (without tumor progression or death) (%) ([1]; 6 months after TE initiation): 90% and 89.5%
- patients without tumor progression (%) ([1]; 6 months after TE initiation): 92%
- patients with progression-free survival (without tumor progression or death) (%) [1, 3]: 89.5%
- patients without tumor progression (%) [1, 3]: 92.0%
- patients with progression-free survival (without tumor progression or death) (%) ([1]; 12 months after TE initiation): 80% and 79.9%
- patients without tumor progression (%) ([1]; 12 months after TE initiation): 87% and 86.8%
- patients with progression-free survival (without tumor progression or death) (%) [1, 4]: 79.9%
- patients without tumor progression (%) [1, 4]: 86.8%
- patients with progression-free survival (without tumor progression or death) (%) ([1]; 18 months after TE initiation): 72.1%
- patients without tumor progression (%) ([1]; 18 months after TE initiation): 78.3%
- Tumor progression: Patients without outcome (%) ([1]; treatment subgroup n=65 (same background treatment pre/post TE), 6 months): 100.0%
- Progression-free survival: Patients without outcome (%) ([1]; treatment subgroup n=65, 6 months): 96.9%
- Progression-free survival: Patients without outcome (%) [1, 5]: 87.5%
- Tumor progression: Patients without outcome (%) [1, 5]: 90.4%
- Progression-free survival: Patients without outcome (%) [1, 6]: 87.5%
- Tumor progression: Patients without outcome (%) [1, 6]: 90.4%
- Body weight and ECOG Performance Status after telotristat ethyl ([2]; overall population and same NET treatment subgroup): improved or unchanged for most patients
- patients with improvement in nausea after TE initiation ([2]; overall population, n=41): 78%
- patients with improvement in abdominal pain after TE initiation ([2]; overall population, n=69): 81%
- patients with improvement in flushing after TE initiation ([2]; overall population, n=88): 81%
- patients with improvement in diarrhea after TE initiation ([2]; overall population, n=133): 85%
